Assay results reported in PubChem BioAssay (NCI).
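Exposure lasted 48 hours, with cells grown in 96-well plates and compounds tested at five concentrations. GI50 = concentration required for 50% inhibition of growth. At the TGI there is no net growth.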

Columns and labels:
Test in all cases: DTP human tumour cell line panel, 48 h
[1] = system: U251 CNS
[2] = system: MDA-MB-231 breast
[3] = system: HOP-92 NSCLC
[4] = system: NCI/ADR-RES ovarian
[5] = system: OVCAR-5 ovarian
[6] = system: HT29 colon
[7] = system: A498 renal
[8] = system: NCI-H226 lung
[9] = system: UACC-62 melanoma
[10] = system: SN12C renal
[11] = system: KM12 colon
[12] = system: COLO 205 colon
[13] = system: SK-MEL-2 melanoma
[14] = system: HCT-116 colon
[15] = system: A549 NSCLC
[16] = system: MCF7 breast
[17] = system: ACHN renal
[18] = system: RPMI-8226 leukemia
[19] = system: T-47D breast
[20] = system: SF-295 CNS
[21] = system: NCI-H23 lung
[22] = system: HL-60(TB) leukemia
[23] = system: OVCAR-3 ovarian
[24] = system: RXF 393 renal
[25] = system: HS 578T breast
[26] = system: MALME-3M melanoma
[27] = system: HOP-62 NSCLC
[28] = system: UO-31 renal
[29] = system: UACC-257 melanoma
[30] = system: CAKI-1 renal
[31] = system: BT-549 breast
[32] = system: HCT-15 colon
[33] = system: SK-OV-3 ovarian
[34] = system: DU-145 prostate
[35] = system: MDA-MB-435
[36] = system: SW-620 colon
[37] = system: HCC-2998 colon
[38] = system: NCI-H522 lung
[39] = system: EKVX NSCLC
[40] = system: PC-3 prostate
[41] = system: SNB-75 CNS
[42] = system: IGROV1 ovarian
[43] = system: SR leukemia
[44] = system: MOLT-4 leukemia
[45] = system: SNB-19 CNS
[46] = system: SK-MEL-5 melanoma
[47] = system: K-562 leukemia
[48] = system: SF-268 CNS
[49] = system: SF-539 CNS
[50] = system: SK-MEL-28 melanoma
[51] = system: 786-0 renal
[52] = system: NCI-H460 lung
[53] = system: CCRF-CEM leukemia
[54] = system: LOX IMVI melanoma
[55] = system: M14 melanoma
[56] = system: TK-10 renal
[57] = system: OVCAR-4 ovarian
[58] = system: OVCAR-8 ovarian

O=C(c1ccccc1)c1c(C(F)(F)F)n([O-])c2ccc(F)cc2[n+]1=O
GI50 [1]: 1.07 µM
TGI [1]: 2.26 µM
GI50 [2]: 0.662 µM
TGI [2]: 1.63 µM
GI50 [3]: 0.211 µM
TGI [3]: 0.394 µM
GI50 [4]: 1.78 µM
TGI [4]: 4.81 µM
GI50 [5]: 1.75 µM
TGI [5]: 4.13 µM
GI50 [6]: 0.502 µM
TGI [6]: 1.79 µM
GI50 [7]: 2.38 µM
TGI [7]: 6.04 µM
GI50 [8]: 1.55 µM
TGI [8]: 3.02 µM
GI50 [9]: 0.882 µM
TGI [9]: 2.18 µM
GI50 [10]: 1.02 µM
TGI [10]: 2.57 µM
GI50 [11]: 0.872 µM
TGI [11]: 2.47 µM
GI50 [12]: 0.383 µM
TGI [12]: 0.926 µM
GI50 [13]: 1.47 µM
TGI [13]: 3.35 µM
GI50 [14]: 0.307 µM
TGI [14]: 1.02 µM
GI50 [15]: 0.749 µM
TGI [15]: 2.97 µM
GI50 [16]: 0.373 µM
TGI [16]: 1.67 µM
GI50 [17]: 1.09 µM
TGI [17]: 2.34 µM
GI50 [18]: 0.551 µM
TGI [18]: 1.93 µM
GI50 [19]: 0.655 µM
TGI [19]: 2.51 µM
GI50 [20]: 1.76 µM
TGI [20]: 3.48 µM
GI50 [21]: 0.98 µM
TGI [21]: 2.59 µM
GI50 [22]: 0.188 µM
TGI [22]: 0.869 µM
GI50 [23]: 0.501 µM
TGI [23]: 1.57 µM
GI50 [24]: 0.434 µM
TGI [24]: 1.45 µM
GI50 [25]: 1.44 µM
TGI [25]: 5.08 µM
GI50 [26]: 1.37 µM
TGI [26]: 3.04 µM
GI50 [27]: 1.34 µM
TGI [27]: 2.71 µM
GI50 [28]: 1.38 µM
TGI [28]: 2.74 µM
GI50 [29]: 1.54 µM
TGI [29]: 3.23 µM
GI50 [30]: 1.5 µM
TGI [30]: 2.85 µM
GI50 [31]: 0.252 µM
TGI [31]: 0.788 µM
GI50 [32]: 0.26 µM
TGI [32]: 0.758 µM
GI50 [33]: 1.89 µM
TGI [33]: 3.39 µM
GI50 [34]: 1.3 µM
TGI [34]: 2.57 µM
GI50 [35]: 1.3 µM
TGI [35]: 2.66 µM
GI50 [36]: 0.147 µM
TGI [36]: 0.306 µM
GI50 [37]: 0.773 µM
TGI [37]: 1.9 µM
GI50 [38]: 0.911 µM
TGI [38]: 2.59 µM
GI50 [39]: 0.992 µM
TGI [39]: 2.44 µM
GI50 [40]: 0.252 µM
TGI [40]: 0.828 µM
GI50 [41]: 1.36 µM
TGI [41]: 2.65 µM
GI50 [42]: 0.517 µM
TGI [42]: 1.98 µM
GI50 [43]: 0.0957 µM
GI50 [44]: 0.362 µM
TGI [44]: 1.48 µM
GI50 [45]: 1.87 µM
TGI [45]: 4.01 µM
GI50 [46]: 0.778 µM
TGI [46]: 2.18 µM
GI50 [47]: 0.348 µM
TGI [47]: 1.77 µM
GI50 [48]: 0.945 µM
TGI [48]: 2.4 µM
GI50 [49]: 1.44 µM
TGI [49]: 2.88 µM
GI50 [50]: 1.1 µM
TGI [50]: 2.32 µM
GI50 [51]: 1.24 µM
TGI [51]: 2.52 µM
GI50 [52]: 0.663 µM
TGI [52]: 2.29 µM
GI50 [53]: 0.349 µM
TGI [53]: > 100 µM
GI50 [54]: 0.167 µM
TGI [54]: 0.317 µM
GI50 [55]: 1.28 µM
TGI [55]: 2.67 µM
GI50 [56]: 1.63 µM
TGI [56]: 3.18 µM

COc1ccc(-n2c(N)c(C#N)c(C#N)c2-c2cccc([N+](=O)[O-])c2)cc1
TGI [1]: > 100 µM
TGI [2]: > 100 µM
TGI [3]: > 100 µM
TGI [57]: > 100 µM
TGI [4]: > 100 µM
TGI [5]: > 100 µM
TGI [6]: > 100 µM
TGI [7]: > 100 µM
TGI [8]: > 100 µM
TGI [9]: > 100 µM
TGI [10]: > 100 µM
TGI [11]: > 100 µM
TGI [12]: > 100 µM
TGI [13]: 8.68 µM
TGI [58]: > 100 µM
TGI [15]: 68.7 µM
TGI [16]: > 100 µM
TGI [17]: > 100 µM
TGI [18]: > 100 µM
TGI [19]: > 100 µM
TGI [20]: > 100 µM
TGI [21]: > 100 µM
TGI [22]: > 100 µM
TGI [23]: > 100 µM
TGI [24]: 65.1 µM
TGI [25]: > 100 µM
TGI [26]: > 100 µM
TGI [27]: > 100 µM
TGI [28]: > 100 µM
TGI [29]: > 100 µM
TGI [30]: > 100 µM
TGI [31]: > 100 µM
TGI [32]: > 100 µM
TGI [33]: > 100 µM
TGI [34]: > 100 µM
TGI [35]: > 100 µM
TGI [36]: > 100 µM
TGI [37]: > 100 µM
TGI [38]: > 100 µM
TGI [39]: > 100 µM
TGI [40]: > 100 µM
TGI [41]: > 100 µM
TGI [42]: > 100 µM
TGI [43]: > 100 µM
TGI [44]: 44.8 µM
TGI [45]: > 100 µM
TGI [46]: > 100 µM
TGI [47]: > 100 µM
TGI [48]: > 100 µM
TGI [49]: > 100 µM
TGI [51]: > 100 µM
TGI [53]: > 100 µM
TGI [54]: > 100 µM
TGI [55]: > 100 µM
TGI [56]: > 100 µM
